The values that follow come from article PMC4185360 (Emerging Microbes & Infections, 2014).

One may read the IC90 as the concentration at which the effect reaches the 90% level. As a reminder, the AUC(0-inf) is the area under the concentration-time curve extrapolated to infinity. The term AUC(0-t) denotes the area under the concentration-time curve up to a stated or last time point. As a reminder, the clearance is the volume of plasma or blood freed of the substance per unit of time. The term Cmax denotes the highest concentration seen after dosing. One may read the half-life as the time in which the quantity being followed falls by half. The Tmax is the time at which the peak concentration occurs. In general, Vd refers to a proportionality between amount in the body and measured concentration, not a real space. The term inhibition denotes the change of the read-out against control, counted positive when it falls. As a reminder, the IC50 is the concentration that gives 50% inhibition.

“And” between values parts separate entries of the source, which are not always exact repeats. Identical values can stand only once. Counter-ions that a name gives are not always drawn. Like-named read-outs stand apart in the source and are kept apart here.

Data set [1] deals with EV71. In words: Antiviral potency assay, viral load by qRT-PCR in RD cells. Particulars: for IC90: read-out: IC90, EV71 replication (viral load by qRT-PCR). Format: cell-based.
Data set [2] in a line: Cynomolgus monkey plasma pharmacokinetics. Conditions: male, iv, 4.37 mg/kg; for AUC(0-inf): AUC0-inf; for AUC(0-t): AUC0-last; for clearance: Cl; for Vd: Vdss.
In data set [3] the target is T1, CYP2C9 (Homo sapiens, UniProt P11712). Nature of the data set: in vitro. Conditions: microsomes.
Another data set deals with T2, CYP1A2 (Homo sapiens, UniProt P05177).
T2 sequence (P05177 1-516): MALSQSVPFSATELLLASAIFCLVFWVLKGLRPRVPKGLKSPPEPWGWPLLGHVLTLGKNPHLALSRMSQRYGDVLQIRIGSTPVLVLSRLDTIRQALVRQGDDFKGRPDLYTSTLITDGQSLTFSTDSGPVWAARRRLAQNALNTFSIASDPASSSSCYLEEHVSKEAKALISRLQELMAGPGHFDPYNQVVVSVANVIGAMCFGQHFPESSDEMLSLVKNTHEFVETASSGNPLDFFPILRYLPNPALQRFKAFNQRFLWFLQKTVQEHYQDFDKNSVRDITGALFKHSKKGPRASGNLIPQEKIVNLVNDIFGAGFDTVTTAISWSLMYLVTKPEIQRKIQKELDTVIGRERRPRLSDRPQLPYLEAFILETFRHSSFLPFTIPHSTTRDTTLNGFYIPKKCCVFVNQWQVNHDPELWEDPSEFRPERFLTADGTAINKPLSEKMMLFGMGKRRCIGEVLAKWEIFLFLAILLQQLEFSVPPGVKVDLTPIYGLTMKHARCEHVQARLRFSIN
Nature of the data set: in vitro. Particulars: microsomes.

The test system of a further data set is poliovirus-1 (Sabin). It counts as cell-based. Particulars: TCID50 reduction assay.
Data set [4] concerns the target T1, CYP2C9. In words: biochemical.
Data set [5] has as its target T3, CYP2D6 (Homo sapiens, UniProt P10635). Nature of the data set: biochemical.
Data set [6] has as its system mouse-adapted EV71 strain MP10. In words: In vivo anti-EV71 efficacy in 10-day-old ICR mice. Conditions: lethal dose EV71 MP10.
Data set [7] deals with EV71. Nature of the data set: Time-of-addition assay, single round viral replication in RD cells. Particulars: 10 µM. Format: cell-based. Here is the method:
Single round viral replication is get by infecting RD cell at multiplicity of infection of 5, collecting at 16 h post infection, and testing culture supernatant and intracellular RNA at 16 h post infection.
(A) Time of addition assay. The viral load in supernatant represents the means±s.e.m. of results of experiment with three replicates, and the intracellular viral load represents the result of a single test. […] Data represents the means±s.e.m. of results of experiment with three replications.

The conditions of data set [8]: source not given; cited from earlier work.
The subject of a further data set is coxsackievirus A16. Format: cell-based, Coxsackie virus A16 (strain shzh05-1). Conditions: 50 µM.
For data set [9] the following is noted: cited from earlier work.
In the next data set the test system is EV71 FY-23. In words: In vivo anti-EV71 efficacy in adult rhesus monkeys. Conditions: 50 mg/kg i.v. four times, between days 6 and 9 post-infection.
The subject of the next data set is EV71 particles. In words: STD NMR assay of binding to EV71 particles. Particulars: inactivated, purified EV71; molar ratio 1:100.
In data set [10] the test system is EV71. In words: Viral attachment assay (cell-virus adsorption at 4°C). Conditions: Enterovirus A, incubated with cells and virus at 4°C, read-out: IC90, virus binding to the cell. Format: cell-based.
In another data set the target is CYP3A4 (Homo sapiens, UniProt P08684). Nature of the data set: in vitro. Conditions: human microsomes, probe marker substrate cocktail, 1′-hydroxylation (CYP3A4).
In data set [11] the target is T3, CYP2D6. In words: in vitro. Particulars: human microsomes, probe marker substrate cocktail, O-demethylation (CYP2D6).
Where [12] appears, read: Enterovirus A, EV71 isolate Fuyang573, RD cells.
The mark [13] stands for this setting: mean of 3 monkeys, 4.37 mg/kg i.v. bolus.
The mark [14] stands for this setting: monkey P101, 4.37 mg/kg i.v. bolus.
[15] abbreviates: monkey P102, 4.37 mg/kg i.v. bolus.
Setting [16] is: monkey P103, 4.37 mg/kg i.v. bolus.

CYP3A4, sequence (P08684 whole entry): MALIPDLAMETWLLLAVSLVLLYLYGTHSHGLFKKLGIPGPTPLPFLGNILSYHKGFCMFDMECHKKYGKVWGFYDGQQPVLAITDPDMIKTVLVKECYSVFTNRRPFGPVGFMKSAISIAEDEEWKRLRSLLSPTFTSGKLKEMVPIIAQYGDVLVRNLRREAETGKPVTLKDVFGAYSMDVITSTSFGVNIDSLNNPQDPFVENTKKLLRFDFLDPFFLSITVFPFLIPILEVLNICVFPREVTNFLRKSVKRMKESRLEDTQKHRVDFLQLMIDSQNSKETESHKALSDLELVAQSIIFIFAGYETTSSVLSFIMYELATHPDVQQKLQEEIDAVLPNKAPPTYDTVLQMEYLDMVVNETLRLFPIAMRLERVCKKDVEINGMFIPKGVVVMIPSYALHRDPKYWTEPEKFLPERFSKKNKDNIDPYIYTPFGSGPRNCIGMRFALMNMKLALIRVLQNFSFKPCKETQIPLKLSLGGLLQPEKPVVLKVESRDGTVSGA
T3 sequence (P10635 whole entry): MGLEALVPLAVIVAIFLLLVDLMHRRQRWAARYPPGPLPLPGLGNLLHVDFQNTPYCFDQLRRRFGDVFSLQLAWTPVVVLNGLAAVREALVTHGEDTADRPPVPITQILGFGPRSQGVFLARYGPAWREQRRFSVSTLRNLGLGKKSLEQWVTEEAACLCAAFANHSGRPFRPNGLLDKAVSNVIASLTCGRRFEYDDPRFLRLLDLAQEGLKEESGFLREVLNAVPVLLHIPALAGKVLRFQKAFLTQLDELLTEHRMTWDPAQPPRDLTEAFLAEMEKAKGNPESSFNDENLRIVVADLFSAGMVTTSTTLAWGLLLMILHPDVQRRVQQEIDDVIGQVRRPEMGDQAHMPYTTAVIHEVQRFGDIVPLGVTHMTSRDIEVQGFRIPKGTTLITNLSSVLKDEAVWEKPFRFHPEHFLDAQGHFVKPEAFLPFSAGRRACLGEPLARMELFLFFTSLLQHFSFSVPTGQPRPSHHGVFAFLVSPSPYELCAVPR
T1 sequence (P11712 whole entry): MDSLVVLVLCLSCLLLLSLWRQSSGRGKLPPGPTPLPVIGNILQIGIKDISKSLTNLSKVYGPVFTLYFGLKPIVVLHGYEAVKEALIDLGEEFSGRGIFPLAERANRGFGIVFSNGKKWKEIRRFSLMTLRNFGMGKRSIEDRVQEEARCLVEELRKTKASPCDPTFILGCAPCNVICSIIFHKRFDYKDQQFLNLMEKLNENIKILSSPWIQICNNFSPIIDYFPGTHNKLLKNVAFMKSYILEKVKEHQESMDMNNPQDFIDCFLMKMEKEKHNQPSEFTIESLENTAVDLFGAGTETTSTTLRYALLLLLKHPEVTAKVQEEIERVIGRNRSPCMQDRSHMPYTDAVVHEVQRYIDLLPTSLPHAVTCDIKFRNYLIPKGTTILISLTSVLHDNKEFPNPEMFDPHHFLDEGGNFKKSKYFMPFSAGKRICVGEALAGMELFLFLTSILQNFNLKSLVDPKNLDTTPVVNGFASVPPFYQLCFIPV

As for `O=S(=O)(O)c1cc(N=C=S)ccc1/C=C/c1ccc(N=C=S)cc1S(=O)(=O)O` [DIDS, 4,4′-diisothiocyanatostilbene-2,2′-disulfonic acid disodium salt], the IC90 in the data set with EV71 [1] (Enterovirus A, EV71, RD) came to 10.3 µM.

As to `O=C(Nc1cccc(C(=O)Nc2ccc(S(=O)(=O)O)c3cc(S(=O)(=O)O)cc(S(=O)(=O)O)c23)c1)Nc1cccc(C(=O)Nc2ccc(S(=O)(=O)O)c3cc(S(=O)(=O)O)cc(S(=O)(=O)O)c23)c1` [NF 023, 8,8′-[carbonylbis(imino-3,1-phenylenecarbonylimino)]bis-1,3,5-naphthalene-trisulphonic acid, hexasodium salt], the IC90 with EV71 [1] (setting [12]) was 8.9 µM.

Regarding `O=C(Nc1cc(C(=O)Nc2ccc(S(=O)(=O)O)cc2S(=O)(=O)O)cc(C(=O)Nc2ccc(S(=O)(=O)O)cc2S(=O)(=O)O)c1)Nc1cc(C(=O)Nc2ccc(S(=O)(=O)O)cc2S(=O)(=O)O)cc(C(=O)Nc2ccc(S(=O)(=O)O)cc2S(=O)(=O)O)c1` [NF 449, 4,4′,4″,4″′-[carbonylbis(imino-5,1,3-benzenetriyl-bis(carbonylimino))]tetrakis-1,3-benzenedisulfonic acid, octasodium salt], the IC90 with EV71 [1] (setting [12]) worked out at 0.9 µM.

In the case of `Cc1nc(/N=N/c2ccc(S(=O)(=O)O)cc2S(=O)(=O)O)c(COP(=O)(O)O)c(C=O)c1O` [PPADS, pyridoxal phosphate-6-azo (benzene-2,4-disulfonic acid) tetrasodium salt hydrate], the IC90 in the data set with EV71 [1] (setting [12]) was found to be 7 µM.

In the case of `Cc1nc(/N=N/c2cc(S(=O)(=O)O)ccc2S(=O)(=O)O)c(COP(=O)(O)O)c(C=O)c1O` [iso-PPADS, pyridoxalphosphate-6-azophenyl-2′,5′-disulfonic acid tetrasodium salt], in the data set with EV71 [1] (setting [12]), the IC90 is 6.4 µM.

For `Cc1ccc(C(=O)Nc2ccc(S(=O)(=O)O)c3cc(S(=O)(=O)O)cc(S(=O)(=O)O)c23)cc1NC(=O)c1cccc(NC(=O)Nc2cccc(C(=O)Nc3cc(C(=O)Nc4ccc(S(=O)(=O)O)c5cc(S(=O)(=O)O)cc(S(=O)(=O)O)c45)ccc3C)c2)c1` [suramin, Suramin sodium salt], the AUC(0-inf) came to 2330 µg·h/mL in data set [2] (setting [13]), 1960 µg·h/mL in data set [2] (setting [14]), 2400 µg·h/mL in [2] (setting [15]) and 2620 µg·h/mL in data set [2] (setting [16]). The AUC(0-t) in data set [2] (setting [13]) amounted to 1800 µg·h/mL; in data set [2] (setting [14]), 1660 µg·h/mL; in [2] (setting [15]), 1810 µg·h/mL; in [2] (setting [16]) it was 1930 µg·h/mL. The C0 was 128 µg/mL in [2] (C0, mean of 3 monkeys, 4.37 mg/kg i.v. bolus); 143 µg/mL in data set [2] (C0, monkey P101, 4.37 mg/kg i.v. bolus); 96.3 µg/mL in data set [2] (C0, monkey P102, 4.37 mg/kg i.v. bolus); 146 µg/mL in [2] (C0, monkey P103, 4.37 mg/kg i.v. bolus). For the same compound, the clearance in data set [2] (setting [13]) amounted to 1.9 mL/h/kg; in [2] (setting [14]), 2.23 mL/h/kg; in data set [2] (setting [15]), 1.82 mL/h/kg; in data set [2] (setting [16]) it was 1.67 mL/h/kg. In addition, the peak concentration (Cmax) in data set [2] (setting [13]) came out at 142 µg/mL; in data set [2] (setting [14]) it was 169 µg/mL; in data set [2] (setting [15]), 117 µg/mL; in data set [2] (setting [16]), 141 µg/mL. The half-life is 104 h in data set [2] (T1/2, mean of 3 monkeys, 4.37 mg/kg i.v. bolus); 69.1 h in [2] (T1/2, monkey P101, 4.37 mg/kg i.v. bolus); 112 h in data set [2] (T1/2, monkey P102, 4.37 mg/kg i.v. bolus); 130 h in data set [2] (T1/2, monkey P103, 4.37 mg/kg i.v. bolus); “long” in data set [9]. Also, the Tmax in data set [2] (setting [13]) came out at 3.6 min; in data set [2] (setting [14]), 4.8 min; in data set [2] (setting [15]) it was 4.8 min; in data set [2] (setting [16]), 1.8 min. The Vd in data set [2] (setting [13]) is 0.199 L/kg; in data set [2] (setting [14]), 0.176 L/kg; in [2] (setting [15]), 0.212 L/kg; in data set [2] (setting [16]), 0.21 L/kg. Besides, the inhibition at 10 min, 10 µM against CYP2C9 [3] stood at 0%; on CYP1A2, 40%; against CYP3A4, 5%; against CYP2D6 [11] it was 7%. Besides, the inhibition at 10 min, 30 µM amounted to 8% against CYP2C9 [3], 70% against CYP1A2, 16% against CYP3A4 and 40% against CYP2D6 [11]. Besides, the inhibition at 10 min, 100 µM against CYP2C9 [3] stood at 32%; at CYP1A2 it was 89%; against CYP3A4 it was 34%; against CYP2D6 [11], 49%. Besides, the “inhibition of poliovirus-1 (Sabin)” value in the data set with poliovirus-1 (Sabin) is given as “not inhibited”. Besides, the IC50 was more than 100 µM on CYP2C9 [4]; > 100 µM (2×) and 45.5 µM against CYP2D6 [5]. In addition, in data set [6] (50 mg/kg i.p. twice daily for 7 days), the survival rate worked out at 30%. This compound also had a decrease of mortality in data set [6] (mice) of 30%. Further, the “effect on viral replication” value in the data set with EV71 [7] (added after adsorption) is reported as “no effect”. Moreover, in the data set with EV71 [7] (added at the virus-cell adsorption stage), the “decrease of viral replication” value is given as more than 1 log10. Also, in [8], the serum protein binding entry was “high levels”. Besides, the “reduction of coxsackievirus A16 replication” value in the data set on coxsackievirus A16 is 10^6 TCID50/mL. Also, the “viral genomic RNA in serum” value in the data set with EV71 FY-23 is listed as < 20 copies of viral genomic RNA/mL. Moreover, the “STD NMR signals with EV71 particles” value with EV71 particles was “strong STD NMR signals”. Also, the IC90 with EV71 [10] was found to be 6.17 µM.

Consider Sucralfate sodium, for which, in the data set on EV71 [1] (EV71 isolate Fuyang573, RD cells), the IC90 was found to be 3.3 µM.

For heparin sodium salt, the “IC90, EV71 replication” value in the data set with EV71 [1] came to 24.3 µg/mL.
